Source: PubChem BioAssay AID624491 (Broad Institute, 2012)
Activity calls are given as the source filed them.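 How the source made its calls: active means fitted curve crossing a set activation limit at or below the highest valid dose tested; inconclusive means flat fit at 30 to 70% activation, or poor fit; inactive means the rest, including signal decreases.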

tested on: D54 ERlucT glycosylation luciferase reporter, luminescence, 24 h; assay: blockers of NLG process in reporter cells – D54 ERlucT cells, luminescence, cherry-picks, dose response (AID 624491);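 further: signal gain reflects blocked N-linked glycosylation of a luciferase reporter; actives raise luciferase signal so AC26 marks activators of the reporter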

SMILES	AC26
O=c1cc(-c2ccccc2)[nH]c2ccc(F)cc12	198 nM
O=C(N=Nc1c(O)[nH]c2ccc(Br)cc12)c1cc(-c2cccs2)nc2ccccc12	4850 nM
Cc1ccc(-c2nn3c(C)nnc3c3ccccc23)cc1S(=O)(=O)N1CCN(CCO)CC1	3870 nM
CCOc1ccc(S(=O)(=O)N2CCN=C2c2ccccc2)cc1	3390 nM
O=C1Cc2c([nH]c3ccc(Br)cc23)-c2ccccc2N1	351 nM
COc1cccc(C(NC(C)=O)c2nc(-c3ccccc3OC)cs2)c1 (stereo unspecified)	452 nM
Cn1c(=O)cc2c3c(c(N4CCCCC4)ccc31)C(=O)c1ccccc1-2	4360 nM
Cc1nnc2c(NC3CCCC3)nc3ccccc3n12	5060 nM
CC(=O)c1sc(Nc2cccc3ccccc23)nc1C	6110 nM
Cc1cc(C)c(S(=O)(=O)N(C)CC(=O)N2CCCC2)c(C)c1	2910 nM
CCOc1ccc(/C=N/NC(=O)c2cc3c(OC)cccc3[nH]2)cc1	3800 nM
COc1cc(NC(C(=O)Nc2cccc(C(C)=O)c2)c2ccccc2)cc(OC)c1OC (stereo unspecified)	890 nM
COc1ccc(C2=Nn3c(nnc3-c3ccccc3F)SC2)cc1OC1CCOC1 (stereo unspecified)	4730 nM
c1ccc(-c2cc(-c3nnc4n3N=C(c3ccc5ccccc5c3)CS4)[nH]n2)cc1	2110 nM
COc1cc(-c2cc3nc(NCCc4ccncc4)ccn3n2)cc(OC)c1OC	798 nM
c1cc2c3c(cccc3c1)C(N1CCCCC1)=N2	13700 nM
Cc1nc(Nc2nc(-c3ccccc3)cc(=O)[nH]2)nc2ccccc12	1690 nM
CC(C)/C=C1\CC/C(=C\c2cccnc2)C1=O	4840 nM
COc1cc(OC)cc(C(=O)c2c(C)c(C#N)c3ccccn23)c1	1220 nM
Cc1cc(C)c2c(N)c3cccc(C)c3nc2n1	478 nM
CC1CC(C)CN(C(=O)/C=C/c2ccc([N+](=O)[O-])s2)C1 (stereo unspecified)	8460 nM
O=C1NC(=O)N(Cc2ccccc2)C(=O)/C1=C/C=C/c1ccco1	1080 nM
Cc1ccc(-n2nc(C)c(NC(=O)CCl)c2C)cc1C	653 nM

SMILES	AC26
Cc1cc(NC(=O)CSc2nc3sc(C)c(C)c3c(=O)n2C2CCCC2)no1	4700 nM
O=C(NCc1cccs1)C1CCN(c2ccc(S(=O)(=O)N3CCOCC3)cc2Cl)CC1	646 nM
CCc1ccc(C(=O)Nc2ccc3c(c2)n(C)c(=O)n3C)cc1	6220 nM
COc1ccc(CC(=O)N(Cc2ccccc2)c2ccc(C)cc2)cc1OC	716 nM
CCN(CC)CCNc1cccc2sc3ccccc3c(=O)c12	4840 nM
COc1cc(OC)c2c(-c3cccc(-c4ccoc4)c3)cc(=O)oc2c1	7640 nM
CC1(C(=O)Nc2ccc3c(c2)OCO3)Cc2c(-c3ccc4c(c3)OCO4)ccnc2O1 (stereo unspecified)	7650 nM
COc1ccc2c(c1)CCc1c(C(=O)Nc3cc(C)n(Cc4ccc(Cl)cc4)n3)noc1-2	3370 nM
CCN(CC)CCCNc1nc2ccccc2c2nc(-c3ccncc3)nn12	2320 nM
CC(=O)Nc1ccc(NC(=O)c2ccc(-c3c(C)noc3C)c3ccoc23)cc1	1350 nM
COc1cccc(Oc2ccc(C(F)(F)F)cc2NC(=O)CN2C(=O)NC3(CCCC3)C2=O)c1	4850 nM
COc1ccc2c(c1)[C@H]1[C@H](CO2)[C@H](c2ccccc2)[C@]2(C)C(=O)Nc3ccccc3C(=O)N12	278 nM
CCOC(=O)C(CC)(CC)C(=O)/C=C/c1cccc(Br)c1	517 nM
COC(=O)c1ccccc1NC(=O)Cn1nnc(-c2ccc(OC)cc2)n1	> 19500 nM (inactive)
COc1cccc(/C=N/NC(=O)c2ccc(N3CCCC3=O)cc2)c1	3350 nM
COc1ccc(C(=O)c2ccc(OC)c(N)c2)cc1N	143 nM
CCc1nn2c(N(C)CCO)cc(C)nc2c1-c1ccc(F)cc1	12800 nM
CCOC(=O)c1cnc2c(C)cc(C)cc2c1NCCCN1CCOCC1	3470 nM
COc1cc2c(cc1OC)C(c1cccs1)N(C(=O)c1cccc(S(=O)(=O)N(C)C)c1)CC2 (stereo unspecified)	1320 nM
CCOc1ccc2c(c1)OC(c1ccc(OC)cc1)(C(F)(F)F)NC2=O (stereo unspecified)	1610 nM
O=C(N/N=C/c1c[nH]c2ccccc12)C1COc2ccccc2O1 (stereo unspecified)	1310 nM
COc1cc2c(C#CCCO)c(-c3ccsc3)oc(=O)c2cc1OC	226 nM
O=C(c1ccccc1-c1ccccc1)N1CCN(c2ccccn2)CC1	2340 nM

SMILES	AC26
Cn1c(SCC(=O)c2ccc(F)cc2)ncc(C(=O)Nc2ccccc2)c1=O	4770 nM
COc1ccc(-c2nnc(SCC(=O)Nc3ncc(C)s3)n2-c2ccccc2)cc1OC	1050 nM
CC(=O)Nc1cccc(-c2ccnc3c2CC(C)(C(=O)NCc2ccco2)O3)c1 (stereo unspecified)	617 nM
O=C(C=Cc1ccccn1)c1ccccc1O	1250 nM
O=C(CCl)N1CCCC1c1ccc2c(c1)OCCO2 (stereo unspecified)	608 nM
Cc1ccc(C(=O)NCc2nnc(SCC(=O)NC(C)c3ccccc3)n2C)cc1 (stereo unspecified)	3980 nM
COc1ccc(NC(=O)c2cc3c(=O)n(C)c4ccccc4c3n2C)cc1OC	2940 nM
O=C(N/N=C/c1ccc(F)cc1)c1sccc1OCc1ccc(F)cc1	1630 nM
COC(=O)c1ccc(C)c(NC(=O)CN(c2cc(OC)ccc2OC)S(C)(=O)=O)c1	641 nM
Cc1ccc(N2C(=O)NC(=O)/C(=C\C=C\c3ccco3)C2=O)cc1C	875 nM
Cc1cccc(N2CCN(C(=O)c3ccncc3)CC2)c1C	11400 nM
COc1cc2c(C#N)c(N3CCc4ccccc4C3)nc(N)c2c(N)n1	6220 nM
COc1ccc(CNCC(=O)Nc2ccccc2-n2cccc2)cc1	922 nM
O=C(COc1ccc(C(=O)c2ccccc2)cc1)NCc1ccc(F)cc1	1870 nM
COc1cc(-c2nc(-c3ccccc3)c(-c3cccs3)[nH]2)cc(OC)c1OC	3280 nM
Cc1ccnc(NC(=O)CN2C(=O)NC(C)(c3ccc4ccccc4c3)C2=O)c1 (stereo unspecified)	11400 nM
COc1ccc(CCn2c(=N)c(C(=O)NCC3CCCO3)cc3c(=O)n4cccc(C)c4nc32)cc1 (stereo unspecified)	575 nM
COc1cccc(C2=CC(c3cccc(OC)c3OC)n3nnnc3N2)c1 (stereo unspecified)	1300 nM
CC(=O)c1c(C)[nH]c(C(=O)Nc2cccc(S(=O)(=O)N3CCCC3)c2)c1C	2610 nM
C[C@@]12C(=O)Nc3cc(Cl)ccc3C(=O)N1[C@H]1c3cc(Br)ccc3OC[C@@H]1[C@@H]2c1ccccc1	961 nM
COC(=O)c1c(C)[nH]c(C(=O)/C=C/c2cccc(Cl)c2)c1C	2410 nM
Cc1noc2ncnc(Sc3ccc(Br)cc3)c12	4470 nM
COc1cccc(C2=CC(c3cccs3)n3nnnc3N2)c1 (stereo unspecified)	700 nM

SMILES	AC26
Cc1ccccc1NS(=O)(=O)c1ccc2c3c(cccc13)C(=O)N2C	3400 nM
O=C(CNC(=O)c1ccco1)N=Nc1c(O)n(CCc2ccccc2)c2ccccc12	1430 nM
CN1CCN(C(c2ccc(Cl)cc2)c2cc(Cl)c3cccnc3c2O)CC1 (stereo unspecified)	4040 nM
COc1ccc(NC(=O)c2cc(S(=O)(=O)N(C)C)ccc2N2CCCC2)cc1Cl	4800 nM
Cc1cc([N+](=O)[O-])ccc1-c1ccc(/C=N/NC(=O)c2ccc(Br)o2)o1	4510 nM
Cc1cccc2c(N)c3c(nc12)N(C)CC3	7370 nM
CCC(c1nc2ccccc2c(=O)n1-c1nc2ccccc2s1)N1C(=O)c2ccccc2C1=O (stereo unspecified)	1030 nM
Cc1nnc2c(NCCC(C)C)nc3ccccc3n12	6080 nM
Nc1sc(-c2ccccc2)cc1-c1n[nH]c(=S)n1C1CCCCC1	10700 nM
Cc1ccc(/C=N/NC(=O)C2COc3ccccc3O2)s1 (stereo unspecified)	307 nM
COc1cccc(C(NC(C)=O)c2nc(-c3ccc(F)cc3OC)cs2)c1 (stereo unspecified)	105 nM
Cc1ccc(S(=O)(=O)NC2=C(N3CCN(Cc4ccccc4)CC3)C(=O)c3ccccc3C2=O)cc1	3810 nM
Cc1cc2[nH]c3ccccc3c2c(C)n1	3670 nM
CN(C)S(=O)(=O)c1ccc(N2CCCC2)c(C(=O)Nc2nc3ccccc3s2)c1	545 nM
CCOC(=O)Cc1csc(/N=C/c2c(O)n(-c3ccc(C)c(C)c3)c(=O)c3ccccc23)n1	2580 nM
O=C(Nc1ccccc1O)c1ccc(NC(=O)C2CC2)cc1	4330 nM
Cc1ccc2nc(/C(C#N)=C/c3cn[nH]c3-c3ccc(F)cc3)[nH]c2c1	1170 nM
CC(C)(C)NCC(O)CON=C1c2ccccc2-c2ccccc21 (stereo unspecified)	5310 nM
COc1ccc(CNC(=O)c2cccc3c(-c4cnn(C)c4)coc23)cc1OC	3960 nM
Cc1ccc(-c2cc(C(=O)NCC(c3ccccc3)N(C)C)c3ccccc3n2)o1 (stereo unspecified)	11400 nM
CC1(C(=O)NCCc2ccccc2)Cc2c(-c3ccc4c(c3)OCO4)ccnc2O1 (stereo unspecified)	3160 nM
CCOC(=O)c1c(C)[nH]c(C(=O)N/N=C/c2ccc(OC)c(OC)c2)c1C	2070 nM
COc1cc(C(=O)OCCc2cc3ccccc3c(=O)o2)cc(OC)c1OC	562 nM

SMILES	AC26
Nc1cccc2c1C(=O)N(C(=O)/C=C/c1ccc(F)cc1)C2=O	6790 nM
O=c1cc(-c2ccc(O)cc2)oc2cc(O)c(C3OC(CO)C(O)C(O)C3O)c(O)c12 (stereo unspecified)	690 nM
Cc1cccc(C(=O)Nc2cc(S(=O)(=O)N3CCOCC3)ccc2N2CCCC2)c1	173 nM
CCCCC[C@H](O)/C=C/[C@@H]1[C@@H](C/C=C\CCCC(=O)OC)[C@@H](O)C[C@H]1O	10.5 nM
COc1cc(NC(=O)c2ccccc2OCc2ccccc2)cc(OC)c1OC	1030 nM
Nc1ccc(C(=O)Nc2ccccc2N)cc1	2880 nM
CCOC(=O)c1nnc(-c2ccc(C)cc2)nc1Sc1ccccc1Cl	6170 nM
COc1cc(C(=O)c2cocc2C(=O)c2ccc3c(c2)OCO3)cc(OC)c1OC	111 nM
COc1ccc2c(c1)[C@H]1[C@H](CO2)[C@H](c2ccccc2)[C@]2(C)C(=O)Nc3cc(C)ccc3C(=O)N12	51.9 nM
CCOc1ccccc1C(=O)Nc1ccsc1C(=O)OC	1300 nM
COc1ccc(S(=O)(=O)NCc2ccccn2)cc1NC(=O)c1ccccc1C	2690 nM
O=C(NCCc1ccccc1)c1coc(=O)c(Br)c1	1530 nM
COC(=O)c1cn(C(=O)c2ccc(OC)cc2)c2ccccc12	730 nM
Cn1nc(C(=O)Nc2cccc(S(=O)(=O)N3CCCCC3)c2)c2ccccc2c1=O	284 nM
CCc1cccc(NC(=O)c2cc(S(=O)(=O)N(C)C)ccc2N2CCCC2)c1	646 nM
CC(=O)c1cccc(Nc2cc(C)nc3c(C)cccc23)c1	5870 nM
Cc1ccc(C(=O)N/C(=C\c2ccco2)C(=O)NCCc2c[nH]c3ccccc23)cc1	2310 nM
CC(C)CC(NC(=O)c1ccc(Cl)cc1)C(=O)OCC(=O)c1ccc2c(c1)NC(=O)CO2 (stereo unspecified)	4090 nM
COc1ccccc1-n1cnc2cc(NCc3cccs3)ccc21	141 nM
